For 30 molecules, IC50 results are on record in patent US11976057B2, “MrgX2 antagonists” (GlaxoSmithKline Intellectual Property Development Limited, priority 2020, dated 2024).

By IC50 is commonly meant the midpoint of a concentration-inhibition curve. Read a low IC50 as inhibition by little substance.

Bounds are passed on as bounds.

In the assay the target is T1, human MRGPRX2 (Homo sapiens, UniProt Q96LB1).
T1 sequence (Q96LB1 1-330): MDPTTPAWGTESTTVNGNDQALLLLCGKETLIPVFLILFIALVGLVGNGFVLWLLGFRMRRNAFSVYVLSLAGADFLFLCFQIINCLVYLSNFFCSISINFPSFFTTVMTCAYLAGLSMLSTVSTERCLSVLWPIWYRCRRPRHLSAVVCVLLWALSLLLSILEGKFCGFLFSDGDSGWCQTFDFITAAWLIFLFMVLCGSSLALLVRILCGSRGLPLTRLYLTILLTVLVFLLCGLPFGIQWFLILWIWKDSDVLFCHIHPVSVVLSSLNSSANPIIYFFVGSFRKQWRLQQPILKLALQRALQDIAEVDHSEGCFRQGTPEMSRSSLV
Put plainly: Ca2+ mobilization assay (FLIPR TETRA): inhibition of Cortistatin-14 mediated MRGPRX2 activation. On the technique in general: A change in cytosolic calcium serves as a functional read-out for many receptors and channels.
For the molecule `C[C@@H](C(=O)Nc1cnc(Oc2ccc(F)cc2F)cn1)[C@H]1CCC[C@@H](c2ccc(=O)[nH]c2)C1` [Example 286, (R)-N-(5-(2,4-difluorophenoxy)pyrazin-2-yl)-2-((1S,3R)-3-(6-oxo-1,6-dihydropyridin-3-yl)cyclohexyl)propanamide], the IC50 is at most 10 nM.

Turning to `CC(C(=O)Nc1ccc(OCC2CC2)cn1)N1CC(c2ccc(=O)[nH]c2)C(F)(F)C1` (stereo not drawn) [Example 164, N-(5-(cyclopropylmethoxy)pyridin-2-yl)-2-(3,3-difluoro-4-(6-oxo-1,6-dihydropyridin-3-yl)pyrrolidin-1-yl)propanamide], the IC50 was 100 to 3160 nM. Then `C[C@@H](C(=O)Nc1ccc(F)cn1)N1CCC(F)(F)[C@@H](c2c[nH]c(=O)c(CC(F)(F)F)c2)C1` [Example 151, (S)-2-((S)-4,4-difluoro-3-(6-oxo-5-(2,2,2-trifluoroethyl)-1,6-dihydropyridin-3-yl)piperidin-1-yl)-N-(5-fluoropyridin-2-yl)propanamide], with 10 to 100 nM; and `CC(C(=O)Nc1ccc(Oc2ccc(F)cc2)cn1)N1CCC(F)(F)C(c2c[nH]c(=O)c(CNCCO)c2)C1` (stereo not drawn) [Example 238, 2-(4,4-difluoro-3-(5-(((2-hydroxyethyl)amino)methyl)-6-oxo-1,6-dihydropyridin-3-yl)piperidin-1-yl)-N-(5-(4-fluorophenoxy)pyridin-2-yl)propanamide], with at most 10 nM; and `C[C@@H](C(=O)Nc1ccc(Oc2ccc(F)cc2)cn1)N1CCC(F)(F)[C@@H](c2c[nH]c(=O)c([C@@H](N)C(F)(F)F)c2)C1` (single isomer, unassigned) [Example 234], with at most 10 nM. Molecule `C[C@H]1C[C@@H](c2ccc(=O)[nH]n2)CN([C@@H](C)C(=O)Nc2ccc(F)cn2)C1` [Example 162, (S)—N-(5-fluoropyridin-2-yl)-2-((3S,5R)-3-methyl-5-(6-oxo-1,6-dihydropyridazin-3-yl)piperidin-1-yl)propanamide] registered an IC50 of 100 to 3160 nM. `CC(C(=O)Nc1ccc(Br)cn1)N1CCC(F)(F)[C@@H](c2ccc(=O)[nH]c2)C1` (stereo partly drawn) [Example 94, N-(5-bromopyridin-2-yl)-2-((S)-4,4-difluoro-3-(6-oxo-1,6-dihydropyridin-3-yl)piperidin-1-yl)propanamide] registered an IC50 of 100 to 3160 nM.

In turn, `C[C@@H](C(=O)Nc1ccc(OCC2CC2)nn1)N1CCC(F)(F)[C@@H](c2c[nH]c(=O)c(N)c2)C1` [Example 140, (S)-2-((S)-3-(5-amino-6-oxo-1,6-dihydropyridin-3-yl)-4,4-difluoropiperidin-1-yl)-N-(6-(cyclopropylmethoxy)pyridazin-3-yl)propanamide] showed an IC50 of 10 to 100 nM. Then `CC(C(=O)Nc1ccc(Oc2ccccc2)cn1)N1CCC(F)(F)C(c2c[nH]c(=O)c(CN)c2)C1` (stereo not drawn) [Example 202, 2-(3-(5-(aminomethyl)-6-oxo-1,6-dihydropyridin-3-yl)-4,4-difluoropiperidin-1-yl)-N-(5-phenoxypyridin-2-yl)propanamide], with at most 10 nM. `C[C@@H](C(=O)Nc1ccc(Oc2ncccc2F)cn1)N1CCC(F)(F)[C@@H](c2ccc(=O)[nH]c2)C1` [Example 65, (S)-2-((S)-4,4-difluoro-3-(6-oxo-1,6-dihydropyridin-3-yl)piperidin-1-yl)-N-(5-((3-fluoropyridin-2-yl)oxy)pyridin-2-yl)propanamide] gave an IC50 of 10 to 100 nM. Then `C[C@@H]1C[C@@H](c2ccc(=O)[nH]c2)CN([C@@H](C)C(=O)Nc2ccc(Cl)cn2)C1` [Example 173], with 3160 to 31600 nM; and `C[C@@H](C(=O)Nc1ccc(OCC2CC2)nn1)N1CCC(F)(F)C(c2c[nH]c(=O)c(CO)c2)C1` (stereo partly drawn) [Example 154, (S)-N-(6-(cyclopropylmethoxy)pyridazin-3-yl)-2-(4,4-difluoro-3-(5-(hydroxymethyl)-6-oxo-1,6-dihydropyridin-3-yl)piperidin-1-yl)propanamide], with 100 to 3160 nM; and `C[C@@H](C(=O)Nc1ccc2cc(C3CC3)ccc2n1)N1CCC(F)(F)[C@@H](c2ccc(=O)[nH]c2)C1` [Example 25, (S)-N-(6-cyclopropylquino-lin-2-yl)-2-((S)-4,4-difluoro-3-(6-oxo-1,6-dihydropyridin-3-yl)piperidin-1-yl)propanamide], with 100 to 3160 nM. `C[C@@H](C(=O)Nc1cnc(Oc2ccc(F)cc2)cn1)[C@H]1CCC(F)(F)[C@@H](c2cc[n+]([O-])cc2)C1` [Example 292, 4-((1R,5S)-2,2-difluoro-5-((R)-1-((5-(4-fluorophenoxy)pyrazin-2-yl)amino)-1-oxopropan-2-yl)cyclohexyl)pyridine 1-oxide] yielded an IC50 of 10 to 100 nM. Then `Cc1cc(C2CN([C@@H](C)C(=O)Nc3ccc(F)cn3)CCC2(F)F)cn(CC(F)(F)F)c1=O` (stereo partly drawn) [Example 200, (2S)-2-(4,4-difluoro-3-(5-methyl-6-oxo-1-(2,2,2-trifluoroethyl)-1,6-dihydropyridin-3-yl)piperidin-1-yl)-N-(5-fluoropyridin-2-yl)propanamide], with 3160 to 31600 nM; and `CC(C(=O)Nc1ccc(F)cn1)N1CCC(F)(F)C(c2c[nH]c(=O)c(C(N)=O)c2)C1` (stereo not drawn) [Example 253], with 100 to 3160 nM. With `C[C@@H](C(=O)Nc1ccc(Oc2ccc(F)cc2F)cn1)N1CCC(F)(F)C(c2ccnc(C(N)=O)c2)C1` (mixture of isomers) [Example 261, 4-(1-((S)-1-((5-(2,4-difluorophenoxy)pyridin-2-yl)amino)-1-oxopropan-2-yl)-4,4-difluoropiperidin-3-yl)picolinamide], the IC50 was at most 10 nM. In the case of `CC(C(=O)Nc1cc2cnn(CC3CC3)c2cn1)N1CCC(F)(F)[C@@H](c2ccc(=O)[nH]c2)C1` (stereo partly drawn) [Example 40, N-(1-(cyclopropyl-methyl)-1H-pyrazolo[3,4-c]pyridin-5-yl)-2-((S)-4,4-difluoro-3-(6-oxo-1,6-dihydropyridin-3-yl)piperidin-1-yl)propanamide], the IC50 lay in the range of 100 to 3160 nM. Then `C[C@@H](C(=O)Nc1ccc(Oc2ccc(F)cc2F)cn1)N1CCC(F)(F)[C@@H](c2c[nH]c(=O)c(CS(C)(=O)=O)c2)C1` [Example 216, (S)-2-((S)-4,4-difluoro-3-(5-((methylsulfonyl)methyl)-6-oxo-1,6-dihydropyridin-3-yl)piperidin-1-yl)-N-(5-(2,4-difluorophenoxy)pyridin-2-yl)propanamide], with at most 10 nM; and `CC(C(=O)Nc1ccc(Oc2ccc(F)cc2)cn1)C1CCC(F)(F)C(c2ccc(=O)[nH]c2)C1` (stereo not drawn) [Example 278, 2-(4,4-difluoro-3-(6-oxo-1,6-dihydropyridin-3-yl)cyclohexyl)-N-(5-(4-fluorophenoxy)pyridin-2-yl)propanamide], with at most 10 nM. Then `C[C@@H](C(=O)Nc1ccc(OCC2CC2)cn1)N1CCC(F)(F)[C@@H](c2c[nH]c(=O)c(N)c2)C1` [Example 138, (S)-2-((S)-3-(5-amino-6-oxo-1,6-dihydropyridin-3-yl)-4,4-difluoropiperidin-1-yl)-N-(5-(cyclopropylmethoxy)pyridin-2-yl)propanamide], with 10 to 100 nM; and `C[C@@H](C(=O)Nc1ccc(Cl)cn1)N1CCC[C@@H](c2ccc(=O)n(Cc3ccccc3)c2)C1` (single isomer, unassigned) [Example 168], with 100 to 3160 nM.

In the case of `CC(C(=O)Nc1ccc(OCC(F)F)cn1)N1CCC(F)(F)[C@@H](c2ccc(=O)[nH]c2)C1` (stereo partly drawn) [Example 49, 2-((S)-4,4-difluoro-3-(6-oxo-1,6-dihydropyridin-3-yl)piperidin-1-yl)-N-(5-(2,2-difluoroethoxy)pyridin-2-yl)propanamide], the IC50 is 100 to 3160 nM. As for `C[C@@H](C(=O)Nc1ccc(OCC2CC2)nn1)N1CCC(F)(F)C(c2c[nH]c(=O)c(C#N)c2)C1` (stereo partly drawn) [Example 223, (2S)-2-(3-(5-cyano-6-oxo-1,6-dihydropyridin-3-yl)-4,4-difluoropiperidin-1-yl)-N-(6-(cyclopropylmethoxy)pyridazin-3-yl)propanamide], the figure is 10 to 100 nM; as for `C[C@@H](C(=O)Nc1ccc(Cl)cn1)N1CCC(F)(F)[C@@H](c2c[nH]c(=O)c(N)n2)C1` [Example 107, (S)-2-((R)-3-(6-amino-5-oxo-4,5-dihydropyrazin-2-y1)-4,4-difluoropiperidin-l-y1)-N-(5-chloropyridin-2-yl)propanamide], 100 to 3160 nM; as for `C[C@@H](C(=O)Nc1ccc(Oc2ccc(F)cn2)cn1)N1CCC(F)(F)[C@@H](c2ccc(=O)[nH]c2)C1` [Example 69, (S)-2-((S)-4,4-difluoro-3-(6-oxo-1,6-dihydropyridin-3-yl)piperidin-1-yl)-N-(5-((5-fluoropyridin-2-yl)oxy)pyridin-2-yl)propanamide], at most 10 nM. Then `COc1ccc(NC(=O)C(C)N2CCC(F)(F)[C@@H](c3ccc(=O)[nH]c3)C2)nn1` (stereo partly drawn) [Example 43, 2-((S)-4,4-difluoro-3-(6-oxo-1,6-dihydropyridin-3-yl)piperidin-1-yl)-N-(6-methoxy-pyridazin-3-yl)propanamide], with 3160 to 31600 nM. `C[C@@H](C(=O)Nc1ccc(F)cn1)N1CCC(F)(F)[C@@H](c2ccc(=O)n(CC(F)F)c2)C1` [Example 193] came in with an IC50 of at most 10 nM. As for `C[C@@H](C(=O)Nc1ccc(Cl)cn1)N1CCC[C@@H](c2cc[n+]([O-])cc2)C1` (single isomer, unassigned) [Example 180], the figure is 3160 to 31600 nM; as for `C[C@@H](C(=O)Nc1ccc(Oc2ccc(F)cc2)cn1)N1CCC(F)(F)[C@@H](c2c[nH]c(=O)c(C#N)c2)C1` [Example 251, (S)-2-((S)-3-(5-cyano-6-oxo-1,6-dihydropyridin-3-yl)-4,4-difluoropiperidin-1-yl)-N-(5-(4-fluorophenoxy)pyridin-2-yl)propanamide], at most 10 nM.
